Measured values reported in patent US12084459B2, “2-(4-{1-[6-(4-isopropyl-phenyl)-imidazo[2,1-b][1,3,4]thiadiazol-2-yl]-piperidin-4-ylmethyl}-piperazin-1-yl)-ethanol and use thereof” (Urifer Ltd., priority 2020, dated 2024).

Columns and labels:
[1] = system: H358 derived xenografts; experiment: H358 derived xenografts in Nude mice; format: in vivo; conditions: 25 mg/kg daily intraperitoneal in 1% Tween 80, H358 xenografts, FIG. 7
Description: In vivo activity of the E266 (compound (I) of the present application) compared to that of the E260 (EP 2401283) in H358 derived xenografts in immune-compromised (Nude) mice.
In order to compare the relative efficacy of E266 and E260 in inhibiting the development and progression of malignant tumors in-vivo, the activity in xenograft model in mice was examined for both compounds. H358 derived xenografts in immune-compromised were elicited in (Nude) mice. The H358 cells, which are metastatic bronchioloalveolar carcinoma (BAC)-non-small cell lung cancer (NSCLC) cells, were subcutaneously injected to the back of the nude mice. When the developing xenografts reached 100 mm^3 size, the inflicted animals were divided into three groups, 10 mice in each group. One group received daily intraperitoneal injection of the solvent 1% Tween 80. This solvent/emulsifier is biocompatible and is approved for pharmaceutical applications in humans. The second group received daily intraperitoneal injection of 25 mg/kg E260 dissolved in 1% Tween 80, and the third group got daily intraperitoneal injection of 25 mg/kg, E266 dissolved in the 1% Tween 80, solvent. The progression of the elicited xenografts was monitored by measuring twice a week the volumes of the developing tumors.

[2] = system: normal Epithelial cells; experiment: effect on normal epithelial cells; format: cell-based; conditions: FIG. 2
Description: Compound (I) was dissolved in 20% hydroxypropylcyclodextrane and the volume of administration (IP) was 10 ml/kg.

[3] = system: metastatic pancreatic ductal adenocarcinoma Su.86.86 cancer cells; experiment: viability / killing of Su.86.86 cells; format: cell-based; conditions: E266 versus E260; compound (I) as tartarate salt in 0.5% Tween-80; FIG. 4
Description: (§1) The compound (I), as tartarate salt was dissolved in 0.5% Tween-80 to affect the viability of several cell lines as follows.
(§2) The effect of the compound (I) (E266) on the growth profile of cancer cells which express Fer was tested. The cells that were tested were: the metastatic colon cancer cell line—SW620, the metastatic pancreatic ductal-adenocarcinoma SU.86.86 cancer cell-line—SU.86.86, the metastatic Triple Negative breast cancer cell line—MDA-MB-231, and the metastatic prostate cancer cell-line—PC3. The effect of the compound (I) (E266) on FS11 cells, a non malignant fibroblastic cell line, was also studied.

[4] = insolubility level in PBS/Polysorbate-80 (Tween 80) solution; format: physicochemical; conditions: 0.5 mM and 1 mM in PBS/Polysorbate-80 (Tween 80) solution at 25° C. (FIG. 1A, 1B)
[5] = system: metastatic colon cancer SW620 cells; experiment: viability / killing of SW620 cells; format: cell-based; conditions: E266 versus E260; compound (I) as tartarate salt in 0.5% Tween-80; FIG. 3
Description: as §1, §2

[6] = system: metastatic Triple negative MDA-MB-231 Breast cancer cells; experiment: viability / killing of MDA-MB-231 cells; format: cell-based; conditions: E266 versus E260; compound (I) as tartarate salt in 0.5% Tween-80; FIG. 5
Description: as §1, §2

Compound: CC(C)c1ccc(-c2cn3nc(N4CCC(CN5CCN(CCO)CC5)CC4)sc3n2)cc1 [Compound E266, 2-(4-{1-[6-(4-isopropyl-phenyl)-imidazo[2,1-b][1,3,4]thiadiazol-2-yl]-piperidin-4-ylmethyl}-piperazin-1-yl)-ethanol]
- progression of the developing tumors (xenograft volume) [1]: managed to halt the progression of the developing tumors
- effect on normal Epithelial cells [2]: no effect
- killing metastatic pancreatic ductal adenocarcinoma Su.86.86 cancer cells [3]: comparable activity
- solubility (insolubility level) [4]: soluble to a certain extent
- killing metastatic colon cancer SW620 cells [5]: comparable activity
- killing metastatic Triple negative MDA-MB-231 Breast cancer cells [6]: comparable activity
